Laboratory results taken from the NIST ThermoML archive (doi:10.1021/je9001575).

Assays:
[1] = molar heat capacity at constant volume; conditions: Liquid, Vacuum adiabatic calorimetry
[2] = Molar enthalpy of transition or fusion; conditions: Crystal; Adiabatic calorimetry

CC(C)C [2-methylpropane]
[1]
Conditions | molar heat capacity at constant volume [J/K/mol]
119.82 K, 6500 kPa | 71.22
122.33 K, 10732 kPa | 71.61
124.97 K, 15325 kPa | 72.14
127.43 K, 20667 kPa | 72.63
130.02 K, 25536 kPa | 73.32
132.43 K, 28973 kPa | 73.82
141.37 K, 4922 kPa | 73.32
143.72 K, 9088 kPa | 73.74
146.26 K, 13401 kPa | 74.25
148.59 K, 17196 kPa | 74.72
151.09 K, 21305 kPa | 75.18
153.38 K, 24872 kPa | 75.69
155.84 K, 28673 kPa | 76.28
162.3 K, 4549 kPa | 75.71
164.6 K, 8126 kPa | 76.26
167.03 K, 11587 kPa | 76.59
169.29 K, 14798 kPa | 77.08
171.69 K, 18296 kPa | 77.43
173.93 K, 21461 kPa | 78.06
176.29 K, 24825 kPa | 78.43
178.5 K, 27869 kPa | 78.99
180.83 K, 31062 kPa | 79.8
183.24 K, 4049 kPa | 78.07
185.45 K, 6869 kPa | 78.63
187.83 K, 9994 kPa | 79.02
190.01 K, 12743 kPa | 79.62
192.38 K, 15769 kPa | 79.81
194.51 K, 18415 kPa | 80.61
196.86 K, 21369 kPa | 81.16
198.97 K, 23939 kPa | 81.69
201.31 K, 26822 kPa | 81.98
203.38 K, 29282 kPa | 82.49
203.62 K, 3700 kPa | 80.96
205.69 K, 32085 kPa | 83.13
205.82 K, 6192 kPa | 81.19
208.09 K, 8785 kPa | 82.04
210.26 K, 11205 kPa | 82.36
212.53 K, 13758 kPa | 83
214.66 K, 16095 kPa | 83.42
216.92 K, 18597 kPa | 83.89
219.02 K, 20866 kPa | 84.44
221.26 K, 23313 kPa | 85
223.33 K, 25507 kPa | 85.63
224.21 K, 3209 kPa | 84.09
225.57 K, 27916 kPa | 85.85
226.5 K, 5490 kPa | 84.53
227.6 K, 30036 kPa | 86.44
228.59 K, 7563 kPa | 85.18
229.83 K, 32388 kPa | 86.73
230.86 K, 9783 kPa | 85.57
232.95 K, 11833 kPa | 86.15
235.18 K, 13991 kPa | 86.65
237.26 K, 16001 kPa | 87.31
239.46 K, 18103 kPa | 87.79
241.54 K, 20084 kPa | 88.35
243.72 K, 22131 kPa | 88.62
244.91 K, 2940 kPa | 87.7
245.77 K, 24074 kPa | 89.4
246.88 K, 4626 kPa | 88.13
247.92 K, 26062 kPa | 89.81
249.24 K, 6667 kPa | 88.84
249.98 K, 27977 kPa | 90.18
251.17 K, 8311 kPa | 89.23
252.11 K, 29918 kPa | 91.01
253.54 K, 10334 kPa | 89.74
254.15 K, 31797 kPa | 91.18
255.44 K, 11931 kPa | 90.33
257.8 K, 13926 kPa | 90.58
259.68 K, 15488 kPa | 91.3
262.03 K, 17452 kPa | 91.98
263.88 K, 18974 kPa | 92.4
264.62 K, 2580 kPa | 91.58
266.23 K, 20919 kPa | 93.11
266.61 K, 4054 kPa | 92.14
268.06 K, 22404 kPa | 93.8
268.91 K, 5781 kPa | 92.42
270.4 K, 24318 kPa | 94.15
270.88 K, 7235 kPa | 92.99
272.22 K, 25772 kPa | 94.9
273.17 K, 8940 kPa | 93.07
274.56 K, 27659 kPa | 95.07
275.12 K, 10363 kPa | 94.06
276.36 K, 29087 kPa | 95.35
277.4 K, 12047 kPa | 94.2
278.68 K, 30942 kPa | 95.99
279.34 K, 13450 kPa | 95.2
280.46 K, 32342 kPa | 96.46
281.62 K, 15113 kPa | 95.82
283.54 K, 16491 kPa | 96.18
283.66 K, 2372 kPa | 95.67
285.76 K, 3730 kPa | 96.28
285.81 K, 18136 kPa | 97.4
287.72 K, 19487 kPa | 97.22
287.93 K, 5135 kPa | 96.68
289.99 K, 21118 kPa | 98.16
290.04 K, 6483 kPa | 97.37
291.87 K, 22438 kPa | 98.44
292.18 K, 7863 kPa | 98.07
294.14 K, 24048 kPa | 99.1
294.3 K, 9205 kPa | 98
296.01 K, 25350 kPa | 99.94
296.42 K, 10563 kPa | 98.75
298.28 K, 26943 kPa | 99.99
298.53 K, 11894 kPa | 98.97
300.14 K, 28222 kPa | 100.48
300.64 K, 13229 kPa | 100.03
302.39 K, 29793 kPa | 100.74
302.75 K, 14551 kPa | 100.42
303.81 K, 2271 kPa | 99.83
304.25 K, 31058 kPa | 101.52
304.85 K, 15868 kPa | 101.01
306.07 K, 3504 kPa | 100.71
306.5 K, 32612 kPa | 102.04
306.98 K, 17187 kPa | 101.25
308.12 K, 4631 kPa | 100.8
309.04 K, 18478 kPa | 102.38
310.38 K, 5860 kPa | 101.98
311.17 K, 19783 kPa | 102.14
312.42 K, 6973 kPa | 101.82
312.62 K, 2143 kPa | 102.01
313.23 K, 21063 kPa | 102.98
314.68 K, 8197 kPa | 102.64
314.81 K, 3247 kPa | 102.19
315.35 K, 22355 kPa | 103.37
316.7 K, 9293 kPa | 102.97
316.95 K, 4329 kPa | 103.28
317.39 K, 23611 kPa | 103.51
318.98 K, 10517 kPa | 103.88
319.15 K, 5436 kPa | 103.12
319.53 K, 24899 kPa | 104.29
320.98 K, 11596 kPa | 104.6
321.27 K, 6508 kPa | 104.19
321.55 K, 26133 kPa | 104.78
322.43 K, 2027 kPa | 103.88
323.27 K, 12819 kPa | 104.79
323.48 K, 7612 kPa | 104.96
323.69 K, 27412 kPa | 105.09
324.79 K, 3113 kPa | 105.07
325.25 K, 13880 kPa | 105.73
325.59 K, 8668 kPa | 104.99
325.7 K, 28633 kPa | 106.08
326.81 K, 4037 kPa | 105.22
327.54 K, 15099 kPa | 105.76
327.82 K, 9782 kPa | 105.71
327.84 K, 29902 kPa | 106.3
329.14 K, 5110 kPa | 105.78
329.51 K, 16147 kPa | 106.45
329.84 K, 31107 kPa | 106.78
329.89 K, 10815 kPa | 106.1
331.17 K, 6040 kPa | 106.74
331.81 K, 17362 kPa | 106.57
331.98 K, 32367 kPa | 107.91
332.14 K, 11928 kPa | 106.39
333.49 K, 7102 kPa | 106.91
333.76 K, 18392 kPa | 107.16
333.97 K, 33555 kPa | 107.88
334.19 K, 12947 kPa | 107.66
335.53 K, 8034 kPa | 107.69
336.06 K, 19603 kPa | 107.61
336.45 K, 14061 kPa | 107.61
337.84 K, 9085 kPa | 108.12
338 K, 20617 kPa | 108.51
338.49 K, 15066 kPa | 108.51
339.89 K, 10016 kPa | 108.49
340.31 K, 21824 kPa | 108.42
340.75 K, 16177 kPa | 108.82
342.19 K, 11067 kPa | 108.69
342.23 K, 22826 kPa | 110.23
342.77 K, 17169 kPa | 109.53
344.24 K, 11989 kPa | 109.21
344.55 K, 24029 kPa | 109.59

Conditions | Molar enthalpy of transition or fusion [kcal/mol]
[2] | 1.074
